Among the data in patent publication US7879876B2, “Sulfonamide derivatives and use thereof for the modulation of metalloproteinases” (Merck Serono SA, priority 2005, dated 2011) are inhibition and IC50 values, retold here.

Common to all, as to assay type: biochemical
One experiment deals with T1, collagenase (MMP-1) (Homo sapiens, UniProt P03956).
T1 sequence (P03956 100-469): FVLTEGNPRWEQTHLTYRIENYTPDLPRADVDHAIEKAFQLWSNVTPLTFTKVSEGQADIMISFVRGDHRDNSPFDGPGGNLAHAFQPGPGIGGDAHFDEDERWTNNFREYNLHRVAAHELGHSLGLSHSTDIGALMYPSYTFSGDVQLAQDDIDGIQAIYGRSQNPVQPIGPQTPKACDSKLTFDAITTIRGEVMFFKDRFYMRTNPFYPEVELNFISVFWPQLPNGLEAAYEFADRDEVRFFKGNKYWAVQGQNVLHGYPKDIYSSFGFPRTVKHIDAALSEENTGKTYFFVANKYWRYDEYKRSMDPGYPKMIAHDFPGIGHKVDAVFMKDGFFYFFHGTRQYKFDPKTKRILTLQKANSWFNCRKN
As to the kind of experiment: MMP-1 enzyme inhibition assay (coumarin-labelled peptide substrate). Conditions: @ 5 μM; read-out: percentage inhibition MMP1. The method in brief: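 Recombinant human MMP-1, APMA-activated if needed, in Tris-HCl pH 7.6 with NaCl, CaCl2 and 0.05% Brij 35; McaPLGLDpaAR substrate added as 8 μM solution, 2 h at 37 °C. Fluorescence (320/405 nm) read without stopping; IC50 from 10 duplicate concentrations (100 μM–5.1 nM) by four-parameter fit.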

Experiment [1] has as its target 92 kDa gelatinase (MMP-9) (Homo sapiens, UniProt P14780). As to the kind of experiment: MMP-9 enzyme inhibition assay (coumarin-labeled peptide substrate). Conditions: @ 5 μM; read-out: percentage inhibition MMP9. The method, boiled down:
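Recombinant human MMP-9 (APMA-activated if needed) was assayed in 100 mM Tris-HCl pH 7.6, 100 mM NaCl, 10 mM CaCl2, 0.05% Brij 35, with McaPLGLDpaAR substrate at 37° C. for 2 h. Fluorescence was read at ex 320/em 405 nm over ten 3-fold compound doses (100 μM–5.1 nM) in duplicate. IC50 came from a four-parameter fit.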

A further experiment addresses metalloelastase (MMP-12) (Homo sapiens, UniProt P39900). Briefly: MMP-12 enzyme inhibition assay (coumarin-labelled peptide substrate). The conditions noted are these: read-out: IC50 MMP12. The method, boiled down:
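Recombinant human MMP-12 assayed per the MMP-9 protocol: Tris-HCl pH 7.6 buffer with NaCl, CaCl2, Brij 35; McaPLGLDpaAR substrate, compounds 100 μM–5.1 nM in duplicate, 2 h at 37° C. Fluorescence read at 405 nm (320 nm excitation) without stopping; IC50 from four-parameter fit.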

A further experiment addresses MMP-14 (Homo sapiens, UniProt P50281). Briefly: MMP-14 enzyme inhibition assay (coumarin-labelled peptide substrate). Conditions: read-out: percentage inhibition MMP14. The method in brief: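 Recombinant human enzyme, APMA-activated if necessary, was incubated with McaPLGLDpaAR substrate and compound (10 concentrations in duplicate, 100 μM to 5.1 nM) in Tris-HCl pH 7.6 with NaCl, CaCl2 and Brij 35 for 2 h at 37 °C. Fluorescence was read at 320/405 nm, and IC50 was taken from a four-parameter fit.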

92 kDa gelatinase (MMP-9), sequence (P14780 107-707 limits assumed): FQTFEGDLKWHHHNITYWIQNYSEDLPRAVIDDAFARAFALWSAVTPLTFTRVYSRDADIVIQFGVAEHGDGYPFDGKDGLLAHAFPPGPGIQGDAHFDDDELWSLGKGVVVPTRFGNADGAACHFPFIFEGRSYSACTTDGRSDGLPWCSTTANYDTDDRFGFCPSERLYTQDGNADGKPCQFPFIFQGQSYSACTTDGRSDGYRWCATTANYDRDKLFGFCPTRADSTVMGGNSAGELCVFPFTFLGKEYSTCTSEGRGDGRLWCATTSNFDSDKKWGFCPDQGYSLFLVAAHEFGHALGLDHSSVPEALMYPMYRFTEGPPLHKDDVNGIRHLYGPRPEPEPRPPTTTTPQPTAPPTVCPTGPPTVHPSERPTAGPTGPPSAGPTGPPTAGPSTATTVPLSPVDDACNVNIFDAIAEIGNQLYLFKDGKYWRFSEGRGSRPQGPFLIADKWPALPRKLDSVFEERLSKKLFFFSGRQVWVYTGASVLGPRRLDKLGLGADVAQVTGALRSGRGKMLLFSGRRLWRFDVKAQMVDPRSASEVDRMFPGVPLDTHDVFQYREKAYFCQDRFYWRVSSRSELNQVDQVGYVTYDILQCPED
metalloelastase (MMP-12), sequence (P39900 106-470): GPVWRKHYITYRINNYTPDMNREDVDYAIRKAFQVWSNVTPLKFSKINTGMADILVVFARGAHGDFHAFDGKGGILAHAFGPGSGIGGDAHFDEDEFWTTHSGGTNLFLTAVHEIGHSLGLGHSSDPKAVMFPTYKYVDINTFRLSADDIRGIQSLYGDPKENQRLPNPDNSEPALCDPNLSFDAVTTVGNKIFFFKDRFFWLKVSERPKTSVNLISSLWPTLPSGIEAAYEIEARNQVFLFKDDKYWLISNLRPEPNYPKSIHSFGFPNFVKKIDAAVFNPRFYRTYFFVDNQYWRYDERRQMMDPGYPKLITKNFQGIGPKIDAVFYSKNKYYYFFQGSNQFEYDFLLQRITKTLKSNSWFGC

Broadly, the inhibition is the percentage by which the read-out fell short of the control. As usually defined, the IC50 is the point on the concentration scale where inhibition reaches its midpoint. In the case of `CC(C)c1ccc2c(c1)CCN(S(=O)(=O)CC(C1CCCC1)N(O)C=O)C2` (centres unmarked) [Example 81, N-{1-cyclopentyl-2-[(6-isopropyl-3,4-dihydroisoquinolin-2(1H)-yl)sulfonyl]ethyl}-N-hydroxyformamide], the values for the inhibition at 5 µM (at collagenase (MMP-1); in experiment [1]; on MMP-14) were 3%, 44% and 87%, respectively. At metalloelastase (MMP-12), the IC50 amounted to 3.1 nM. Besides, the inhibition at 0.1 µM on MMP-14 amounted to 0%.

Turning to `O=CN(O)C(CS(=O)(=O)N1CCc2ccc(C(F)(F)F)cc2C1)C1CCCC1` (centres unmarked) [Example 82, N-(1-cyclopentyl-2-{[7-(trifluoromethyl)-3,4-dihydro-isoquinolin-2(1H)-yl]sulfonyl}ethyl)-N-hydroxyformamide], the inhibition at 5 µM on collagenase (MMP-1) stood at 10%; in experiment [1], 0%; at MMP-14, 20%. Further, the IC50 on metalloelastase (MMP-12) came out at 26 nM.

As for `O=CN(O)C(CS(=O)(=O)N1CCc2ccc(C(F)(F)F)cc2C1)C1CC1` (centres unmarked) [Example 83, N-(1-cyclopropyl-2-{[7-(trifluoromethyl)-3,4-dihydroisoquinolin-2(1H)-yl]sulfonyl}ethyl)-N-hydroxyformamide], the inhibition at 5 µM is 4% at collagenase (MMP-1), 4% in experiment [1] and 6% on MMP-14. Further, the IC50 at metalloelastase (MMP-12) turned out to be 52 nM.

`CC(C)c1ccc2c(c1)CCN(S(=O)(=O)CC(C1CC1)N(O)C=O)C2` (centres unmarked) [Example 85, N-{1-cyclopropyl-2-[(6-isopropyl-3,4-dihydroisoquinolin-2(1H)-yl)sulfonyl]ethyl}-N-hydroxyformamide]: the inhibition at 5 µM at collagenase (MMP-1) was 5%; in experiment [1], 28%; on MMP-14 it was 95%. Also, the IC50 at metalloelastase (MMP-12) is 4.9 nM. In addition, on MMP-14, the inhibition at 0.1 µM was 14%.

Consider `O=CN(O)C(CCc1cccnc1)CS(=O)(=O)N1CCc2ccc(Cl)cc2C1` (centres unmarked) [Example 86, N-(1-{[(7-chloro-3,4-dihydroisoquinolin-2(1H)-yl)sulfonyl]methyl}-3-pyridin-3-ylpropyl)-N-hydroxyformamide], for which the inhibition at 5 µM on collagenase (MMP-1) was 49%; in experiment [1], 52%; on MMP-14, 100%. Also, at metalloelastase (MMP-12), the IC50 worked out at 9.8 nM. Also, the inhibition at 0.1 µM on MMP-14 was 12%.
